Reference: patent US20180289764A1, “TRADITIONAL CHINESE MEDICINE COMPOSITION FOR TREATING PSORIASIS” (Guangdong Provincial Hospital of Chinese Medicine, priority 2015, published 2018)

Legend:
[1] = test system: psoriasis; details: systemic treatment of psoriasis, background table; cited from earlier work
[2] = test system: propranolol-induced guinea pig psoriasis model; test: Propranolol-induced guinea pig psoriasis model; assay type: in vivo, Hartley guinea pigs
Experimental: The preparation of 5% propranolol hydrochloride emulsion: 5 g propranolol hydrochloride was dissolved with 50% ethanol, 5 mL 1,2-propanediol was added as a composite accelerator, and 5 g PVPK30 was added as a film-forming material. 50% ethanol was added to 100 mL, and preparing into 5% propranolol hydrochloride emulsion until used
80 Hartley guinea pigs weighing 200-250 g with half males and half females were selected in this study, the Hartley guinea pigs were qualified in an adaptive breeding observation. 10 guinea pigs (half male and half female) were used as a normal control group based on a random allocation, and no drugs were administrated to them; the other 70 guinea pigs (half males and half females) were treated with 5% propranolol hydrochloride emulsion (about 200 μL) evenly in the skins behind both of ears, 2 times a day, continuing treating 4 weeks, for modeling. 4 weeks later, 10 guinea pigs were sacrificed to examine whether the model was successful (with the thickness of the ear skin as an index). The remaining 60 guinea pigs were then layered with Excel according to weights, 6 guinea pigs every layer, and the guinea pigs in each layer were randomly assigned to each group, 10 guinea pigs every group, and the guinea pigs were divided into 6 groups in total, that is the model control group, the group of the present invention, the group of patent 201210183904.3, the group of the patent of 200910091066.5, the group of methotrexate tablet and the group of yujin yinxie tablet. The guinea pigs in each group were given by intragastric administration at a volume of 20 mL·kg-1·d-1 in the morning, once every day for 10 days. The normal control group and the model control group were given equal volume of pure water. The guinea pigs were sacrificed one hour after the last administration, and the skin behind both of ears was took off and fixed with 10% formaldehyde solution, embedded in paraffin, and stained with HE, observed under an optical microscope. 10 high-power fields were counted, the thickness of the epidermis was measured with a micrometer, and averaged; the auricular pathology of guinea pigs was used to perform a histological examination, observe vasodilation situations, which were denoted as 0, 0.5, 1 and 2 points according to normal, light, medium and heavy degrees.

[3] = test system: mouse tail scaled epidermis; test: Effects on the mouse tail scaled epidermis; assay type: in vivo, KM mice
Description: 60 KM mice weighing 18-25 g with half males and half females were selected in this study, the mice were qualified in an adaptive breeding observation. The mice were layered with Excel according to weights, 6 mice every layer, and the mice in each layer were randomly assigned to each group, 10 mice every group, and the mice were divided into 6 groups in total, that is normal control group, the group of the present invention, the group of patent 200910091066.5, the group of the patent of 201210183904.3, the group of methotrexate tablet and the group of yujin yinxie tablet. The mice in each group were given by intragastric administration at a volume of 20 mL·kg-1·d-1 in the morning, once every day for 14 days. The normal control group was given equal volume of pure water. The mice were sacrificed one hour after the last administration, and a long strip of the dorsal skin of the root of the mouse tail (about 1.0 cm×0.2 em) was took off and fixed with 10% formaldehyde solution, embedded in paraffin, and stained with HE. The tail scales of each mouse were observed under an optical microscope. Those where the granulosa layers arranged in rows are in the epidermis of scales between the two follicular orifice, are known as the scales with granulosa layer. […]

SMILES	Efficacy rate (the efficient) [1]	Blood vessel dilatation ([2]; 0, 0.5, 1, 2 points for normal, light, medium, heavy, intragastric 10 days, x ± s, n = 10)	Effect on epidermis thickness of guinea pig ears and hemangiectasis compared with model control ([2]; P<0.01)	Histopathological examination ([2]; guinea pig ear skin, HE stain)	Epidermal thickness ([2]; guinea pig ear skin, intragastric once daily for 10 days, x ± s, n = 10)	Formation of the epidermis granulosa layer of the mouse tail scale compared with normal control group ([3]; intragastric 14 days, P<0.05 or P<0.01)	The number of scales in the granulosa layer ([3]; per 100 scales, expressed as a percentage, intragastric once daily for 14 days, x ± s, n = 10)
CC1=C(/C=C/C(C)=C/C=C/C(C)=C/CO)C(C)(C)CCC1 [Vitamin A, vitamin A (retinol)]	25%						
CN(Cc1cnc2nc(N)nc(N)c2n1)c1ccc(C(=O)N[C@@H](CCC(=O)O)C(=O)O)cc1 [methotrexate tablet, methotrexate]	20-40%	0.42 ± 0.12 score	significantly reduce the thickness of the epidermis of guinea pig ears and reduce hemangiectasis	hyperkeratosis and parakeratosis was obviously alleviated	96.61 ± 4.78 μm	significantly promote the formation of the epidermis granulosa layer of the mouse tail scale	43.65 ± 11.18
